Source: US20260337125A1, “RADIOLABELED TYROSINE DERIVATIVE AND APPLICATION THEREOF” (Osaka University, priority 2022, published 2026)

Experiments:
[1] = system: CDDP-resistant A549 (A549 CDDP-r); conditions: A549 CDDP-r tumor weight 30 days after administration, 0.5 MBq/0.2 mL per mouse, tail vein
Procedure: (§1) Thirty days after administration, the mice were euthanized and tumor masses were isolated. After fat tissue and the like were trimmed off, the wet weights of the isolated tumor masses were measured to make a histogram.

[2] = system: Gem-resistant PANC1 (PANC1 Gem-r); conditions: in vivo
Procedure: as §1

PANC1 = assay: Cellular uptake test (Using PANC1); type: cell-based, human
Procedure: • Cells to be used: PANC1 • Culture medium to be used: D-MEM (containing 10% FBS, 1% P/S)
(§2) Two days before a test day, a cell suspension was prepared in such a manner that the concentration of predetermined cells was 1×10^5 cells/mL in the same manner as in Test Example 1. The cell suspension was seeded in a 24-well multiculture plate at a volume of 0.5 mL per well. On the day of the test, cultures were confirmed to be subconfluent (which refers to a state where 70-80% of the well is covered in density). The cells were washed twice with warmed PBS(-) Buffer (166-23555, FUJIFILM Wako Pure Chemical Corporation), the culture medium was replaced with HBSS(-) Buffer (085-09355, FUJIFILM Wako Pure Chemical Corporation), and the plate was left to stand in an incubator (MINIcell-35, WakenBtech Co., Ltd) until an RI addition test.
(§3) ^211At-AAMT-OMe, ^211At-AAMT-OEt, ^211At-AAMT-OPr, or ^211At-AAMT was added to the prepared cells at 10 μL/well. BCH (LAT1 inhibitor, 20 mM) or unlabeled AMT (α-methyl tyrosine, 1 μg/mL) was previously (15 minutes before) added ([…]). The cells were cultured (CO2 5%, 37 °C), and after 30 minutes, the liquid was removed by suction using an aspirator. The cells were washed twice with PBS(-). The cells were lysed by adding 0.1N NaOH to obtain a lysate, and the radioactivity of the lysate was measured using a γ counter. After the radioactivity measurement, the lysate was loaded into a 96-well plate at a volume of 10 μL per well, the protein amount was measured by the BCA method, and the number of cells was corrected based on the protein amount. Absorbance was measured by MultiScanFC (Thermo Fisher). The uptake level of ^211At-AAMT-OMe, ^211At-AAMT-OEt, ^211-At-AAMT-OPr, or ^211At-AAMT into the cells (number of radioactivity counts/protein amount) was calculated.

HEK293-hLAT1 = HEK293-hLAT1 (Homo sapiens, UniProt Q01650); assay: Cellular uptake test (Using HEK293); type: cell-based
Procedure: • Cells to be Used: HEK293-Mock, HEK293-hLAT1, HEK293-hLAT2 (HEK293: Human Embryonic Kidney cells 293) • Culture medium to be used: E-MEM (containing 10% FBS, 1% P/S, 1% NEAA)
as §2, with “cells/mL.” for “cells/mL in the same manner as in Test Example 1.”
as §3, with “^211At-AAMT-OMe” for “^211At-AAMT-OMe, ^211At-AAMT-OEt, ^211At-AAMT-OPr,”, “^211At-AAMT-OMe” for “^211At-AAMT-OMe, ^211At-AAMT-OEt, ^211-At-AAMT-OPr,”

PANC1 tumor = assay: Measurement of accumulated amounts of 211At-labeled compounds in PANC1 tumor-bearing mice; type: in vivo, human (PANC1) in Balb/c-nu/nu mice
Procedure: (§4) Radiation doses before and after the administration were measured, and a difference between them was defined as an injected dose (ID). Ten minutes and one hour after administration, the mice were anesthetized by isoflurane inhalation, the tumors were isolated by autopsy in chronological order, and their radiation doses and weights were measured using a gamma counter (2480 Wizard^2, PerkinElmer) and a semimicro scale (Shimadzu Corporation, readability 10 μg), respectively. For comparison between accumulated amounts, accumulated amounts per unit amount (% ID/g) were calculated.
(§5) In Table 1, the amounts of the ^211At-labeled compounds accumulated in tumors of the PANC1 tumor-bearing models (% ID/g) are shown. It should be noted that in Table 1, “OMe” is ^211At-AAMT-OMe, “OEt” is ^211At-AAMT-OEt, “OPr” is ^211At-AAMT-OPr, and “OH” is ^211At-AAMT.

[3] = as above; type: in vivo, human (PANC1) in Balb/c-nu/nu mice; conditions: tumor, iv, 0.1 MBq/animal, 0.1 MBq/0.2 mL per mouse, tail vein, read-out: tumor accumulation
Procedure: as §4, §5

HEK293-hLAT1, sequence (Q01650 whole entry): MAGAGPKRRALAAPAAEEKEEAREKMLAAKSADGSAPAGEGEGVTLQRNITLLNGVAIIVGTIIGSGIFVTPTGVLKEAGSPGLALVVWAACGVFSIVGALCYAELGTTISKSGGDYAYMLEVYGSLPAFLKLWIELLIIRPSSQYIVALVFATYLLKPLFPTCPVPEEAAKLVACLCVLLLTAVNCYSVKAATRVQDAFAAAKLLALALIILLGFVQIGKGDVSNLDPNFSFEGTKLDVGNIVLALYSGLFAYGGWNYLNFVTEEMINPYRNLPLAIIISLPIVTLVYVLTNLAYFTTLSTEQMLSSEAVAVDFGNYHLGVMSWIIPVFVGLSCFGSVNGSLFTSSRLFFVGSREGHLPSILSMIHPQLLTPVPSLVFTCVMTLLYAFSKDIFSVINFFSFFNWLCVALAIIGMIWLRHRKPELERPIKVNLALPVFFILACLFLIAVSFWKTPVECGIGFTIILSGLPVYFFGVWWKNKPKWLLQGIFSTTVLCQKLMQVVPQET
HEK293-hLAT1, sequence (P08195 102-630 partner): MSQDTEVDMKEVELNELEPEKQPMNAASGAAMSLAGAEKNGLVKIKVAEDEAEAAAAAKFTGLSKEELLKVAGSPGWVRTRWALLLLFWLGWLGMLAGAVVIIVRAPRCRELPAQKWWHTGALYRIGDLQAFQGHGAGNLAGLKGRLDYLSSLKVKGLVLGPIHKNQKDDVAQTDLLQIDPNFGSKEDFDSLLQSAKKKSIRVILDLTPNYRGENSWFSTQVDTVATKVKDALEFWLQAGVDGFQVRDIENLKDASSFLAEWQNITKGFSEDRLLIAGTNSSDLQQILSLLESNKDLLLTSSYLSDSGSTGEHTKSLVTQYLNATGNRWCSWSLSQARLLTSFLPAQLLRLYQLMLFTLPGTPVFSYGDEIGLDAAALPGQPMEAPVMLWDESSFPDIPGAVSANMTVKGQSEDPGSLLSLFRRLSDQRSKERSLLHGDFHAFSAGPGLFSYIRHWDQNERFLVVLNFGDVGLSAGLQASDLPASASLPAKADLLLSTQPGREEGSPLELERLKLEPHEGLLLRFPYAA

Q: With `COc1ccc(C[C@](C)(N)C(=O)O)cc1[At]` [^211At-AAMT-OMe, (S)-3-astato(^211At)-O-methyl-α-methyltyrosine] as the compound, how does the anti-tumor effect [1] read?
A: higher than that of ^211At-AAMT on CDDP-resistant A549

Q: What about the anti-tumor effect [2] of the same compound?
A: higher on Gem-resistant PANC1 (PANC1 Gem-r) than on PANC1

Q: And the “tumor growth inhibiting effect” value [2]?
A: higher tumor growth inhibiting effect on the gemcitabine-resistant PANC1 cells

Q: And the “uptake level into cells (number of radioactivity counts/protein amount)” value (PANC1)?
A: much superior in uptake level to ^211At-AAMT

Q: What about the uptake speed (PANC1; PANC1 cells, uptake level immediately after addition) of the same compound?
A: much superior also in uptake speed

Q: And the “uptake level into cells (number of radioactivity counts/protein amount)” value (HEK293-hLAT1; HEK293-hLAT1 cells (CTL), 30 minutes, 37 °C)?
A: strongly taken up into HEK293-hLAT1 cells (CTL), comparable to ^211At-AAMT

Q: And the specificity of uptake (HEK293-hLAT1; HEK293-hLAT1 cells, without and with BCH or AMT)?
A: specifically taken up into HEK293-hLAT1 cells

Q: What about the “accumulation in the tumor sites compared to 211At-AAMT” value (PANC1 tumor; 10 minutes and 1 hour after administration, tail vein) of the same compound?
A: more highly accumulated in the tumor sites than ^211At-AAMT

Q: What about the “retention at tumor sites” value (PANC1 tumor; compared to 211At-AAMT) of the same compound?
A: superior retention at tumor sites compared to ^211At-AAMT

Q: And the tissue uptake at 10 min ([3]; 10 minutes after administration)?
A: 2.59 %ID/g

Q: And the tissue uptake at 1 h ([3]; 1 hour after administration)?
A: 3.78 %ID/g
